Data: PubChem BioAssay (NCI)
Converted amounts (≈) assume the structure as drawn.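 Where inhibition never reached the appropriate level, the endpoint shown equals the highest concentration tested. Otherwise, values were interpolated linearly from a five-concentration, 48-hour dose response in 96-well plates. The concentration for 50% growth inhibition is given as GI50. TGI: total growth inhibition.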 Where a SMILES comes first, the peptide text is derived from it. The star is where a group is joined. Boc = CC(C)(C)OC(=O)*; OBn = c1ccc(CO*)cc1

Assays:
Test in all cases: DTP human tumour cell line panel, 48 h
SF-539 CNS = test system: SF-539 CNS
OVCAR-3 ovarian = test system: OVCAR-3 ovarian
SN12C renal = test system: SN12C renal
SK-MEL-5 melanoma = test system: SK-MEL-5 melanoma
HOP-62 NSCLC = test system: HOP-62 NSCLC
IGROV1 ovarian = test system: IGROV1 ovarian
SW-620 colon = test system: SW-620 colon
UO-31 renal = test system: UO-31 renal
NCI-H23 lung = test system: NCI-H23 lung
BT-549 breast = test system: BT-549 breast
K-562 leukemia = test system: K-562 leukemia
PC-3 prostate = test system: PC-3 prostate
SK-MEL-28 melanoma = test system: SK-MEL-28 melanoma
MDA-MB-435 = test system: MDA-MB-435
KM12 colon = test system: KM12 colon
COLO 205 colon = test system: COLO 205 colon
NCI-H226 lung = test system: NCI-H226 lung
LOX IMVI melanoma = test system: LOX IMVI melanoma
SNB-75 CNS = test system: SNB-75 CNS
SR leukemia = test system: SR leukemia
M14 melanoma = test system: M14 melanoma
A549 NSCLC = test system: A549 NSCLC
NCI/ADR-RES ovarian = test system: NCI/ADR-RES ovarian
MOLT-4 leukemia = test system: MOLT-4 leukemia
SF-295 CNS = test system: SF-295 CNS
OVCAR-8 ovarian = test system: OVCAR-8 ovarian
MCF7 breast = test system: MCF7 breast
A498 renal = test system: A498 renal
U251 CNS = test system: U251 CNS
OVCAR-5 ovarian = test system: OVCAR-5 ovarian
TK-10 renal = test system: TK-10 renal
HCT-116 colon = test system: HCT-116 colon
T-47D breast = test system: T-47D breast
HCC-2998 colon = test system: HCC-2998 colon
HCT-15 colon = test system: HCT-15 colon
HL-60(TB) leukemia = test system: HL-60(TB) leukemia
NCI-H522 lung = test system: NCI-H522 lung
HT29 colon = test system: HT29 colon
SNB-19 CNS = test system: SNB-19 CNS
CAKI-1 renal = test system: CAKI-1 renal
NCI-H460 lung = test system: NCI-H460 lung
CCRF-CEM leukemia = test system: CCRF-CEM leukemia
SK-OV-3 ovarian = test system: SK-OV-3 ovarian
MDA-MB-231 breast = test system: MDA-MB-231 breast
RPMI-8226 leukemia = test system: RPMI-8226 leukemia
ACHN renal = test system: ACHN renal
SF-268 CNS = test system: SF-268 CNS
HOP-92 NSCLC = test system: HOP-92 NSCLC
DU-145 prostate = test system: DU-145 prostate
SK-MEL-2 melanoma = test system: SK-MEL-2 melanoma
MALME-3M melanoma = test system: MALME-3M melanoma
786-0 renal = test system: 786-0 renal
OVCAR-4 ovarian = test system: OVCAR-4 ovarian
UACC-257 melanoma = test system: UACC-257 melanoma
UACC-62 melanoma = test system: UACC-62 melanoma

In the case of `CS[C@@]1(C(=O)Nc2ccc3[nH]nc(-c4ccc(OC(C)C)nc4)c3c2)CCN(CC(=O)N2CC=C(c3ccc(-c4ncn(C)n4)cc3)CC2)C1`, the GI50 (SF-539 CNS) is reported as over 100 µM, the TGI (SF-539 CNS) is reported as over 100 µM and the GI50 (OVCAR-3 ovarian) is reported as over 100 µM. The TGI (OVCAR-3 ovarian) was over 100 µM, the GI50 (SN12C renal) was over 100 µM and the TGI (SN12C renal) was over 100 µM. The GI50 (SK-MEL-5 melanoma) was 1.03 µM, the TGI (SK-MEL-5 melanoma) was over 89.9 µM and the GI50 (HOP-62 NSCLC) was 0.378 µM. For the same molecule, the TGI (HOP-62 NSCLC) was over 100 µM, the GI50 (IGROV1 ovarian) was 0.271 µM and the TGI (IGROV1 ovarian) was over 100 µM. For the same molecule, the GI50 (SW-620 colon) was 0.201 µM, the TGI (SW-620 colon) was over 100 µM and the GI50 (UO-31 renal) was 1.01 µM. It also gave a TGI (UO-31 renal) of over 100 µM, a GI50 (NCI-H23 lung) of 0.16 µM and a TGI (NCI-H23 lung) of over 100 µM. It also gave a GI50 (BT-549 breast) of 9.43 µM, a TGI (BT-549 breast) of over 100 µM and a GI50 (K-562 leukemia) of 2.24 µM. The TGI (K-562 leukemia) was over 100 µM, the GI50 (PC-3 prostate) was 6.56 µM and the TGI (PC-3 prostate) was over 100 µM. The GI50 (SK-MEL-28 melanoma) was 0.0293 µM, the TGI (SK-MEL-28 melanoma) was 0.441 µM and the GI50 (MDA-MB-435) was 0.355 µM. It also gave a TGI (MDA-MB-435) of over 100 µM, a GI50 (KM12 colon) of 0.929 µM and a TGI (KM12 colon) of over 100 µM. For the same molecule, the GI50 (COLO 205 colon) was 0.0178 µM, the TGI (COLO 205 colon) was over 100 µM and the GI50 (NCI-H226 lung) was over 100 µM. For the same molecule, the TGI (NCI-H226 lung) was over 100 µM, the GI50 (LOX IMVI melanoma) was 0.204 µM and the TGI (LOX IMVI melanoma) was 8.28 µM. The GI50 (SNB-75 CNS) was over 100 µM, the TGI (SNB-75 CNS) was over 100 µM and the GI50 (SR leukemia) was 4.35 µM. The TGI (SR leukemia) was 63.6 µM, the GI50 (M14 melanoma) was 0.032 µM and the GI50 (A549 NSCLC) was 1.6 µM. It also gave a TGI (A549 NSCLC) of over 100 µM, a GI50 (NCI/ADR-RES ovarian) of 12.6 µM and a TGI (NCI/ADR-RES ovarian) of over 100 µM. It also gave a GI50 (MOLT-4 leukemia) of 5.26 µM, a TGI (MOLT-4 leukemia) of over 100 µM and a GI50 (SF-295 CNS) of over 27.3 µM. It also gave a TGI (SF-295 CNS) of over 100 µM, a GI50 (OVCAR-8 ovarian) of 9.31 µM and a TGI (OVCAR-8 ovarian) of over 100 µM. It also gave a GI50 (MCF7 breast) of 13.9 µM, a TGI (MCF7 breast) of over 100 µM and a GI50 (A498 renal) of 0.176 µM. It also gave a TGI (A498 renal) of 0.641 µM, a GI50 (U251 CNS) of 1.65 µM and a TGI (U251 CNS) of over 100 µM. It also gave a GI50 (OVCAR-5 ovarian) of 0.131 µM, a TGI (OVCAR-5 ovarian) of over 100 µM and a GI50 (TK-10 renal) of 0.237 µM. The TGI (TK-10 renal) was over 100 µM, the GI50 (HCT-116 colon) was 0.161 µM and the TGI (HCT-116 colon) was over 100 µM. It also gave a GI50 (T-47D breast) of 27.9 µM, a TGI (T-47D breast) of over 100 µM and a GI50 (HCC-2998 colon) of 0.131 µM. It also gave a TGI (HCC-2998 colon) of over 100 µM, a GI50 (HCT-15 colon) of 2.27 µM and a TGI (HCT-15 colon) of over 100 µM. It also gave a GI50 (HL-60(TB) leukemia) of 0.0551 µM, a TGI (HL-60(TB) leukemia) of over 100 µM and a GI50 (NCI-H522 lung) of over 51.2 µM. It also gave a TGI (NCI-H522 lung) of over 100 µM, a GI50 (HT29 colon) of 0.0368 µM and a TGI (HT29 colon) of over 100 µM. It also gave a GI50 (SNB-19 CNS) of over 100 µM, a TGI (SNB-19 CNS) of over 100 µM and a GI50 (CAKI-1 renal) of over 100 µM. It also gave a TGI (CAKI-1 renal) of over 100 µM, a GI50 (NCI-H460 lung) of over 100 µM and a TGI (NCI-H460 lung) of over 100 µM. For the same molecule, the GI50 (CCRF-CEM leukemia) was 12.5 µM, the TGI (CCRF-CEM leukemia) was over 100 µM and the GI50 (SK-OV-3 ovarian) was over 100 µM. The TGI (SK-OV-3 ovarian) was over 100 µM, the GI50 (MDA-MB-231 breast) was 0.38 µM and the TGI (MDA-MB-231 breast) was over 100 µM. For the same molecule, the GI50 (RPMI-8226 leukemia) was 2.21 µM, the TGI (RPMI-8226 leukemia) was over 100 µM and the GI50 (ACHN renal) was 37.8 µM. For the same molecule, the TGI (ACHN renal) was over 100 µM, the GI50 (SF-268 CNS) was over 100 µM and the TGI (SF-268 CNS) was over 100 µM. It also gave a GI50 (HOP-92 NSCLC) of 0.228 µM, a TGI (HOP-92 NSCLC) of 1.66 µM and a GI50 (DU-145 prostate) of over 100 µM. For the same molecule, the TGI (DU-145 prostate) was over 100 µM, the GI50 (SK-MEL-2 melanoma) was 0.0571 µM and the TGI (SK-MEL-2 melanoma) was 1.11 µM. For the same molecule, the GI50 (MALME-3M melanoma) was 0.0155 µM, the TGI (MALME-3M melanoma) was 0.105 µM and the GI50 (786-0 renal) was 5.27 µM. It also gave a TGI (786-0 renal) of over 100 µM.

In the case of `CC(C)CC(NC(=O)OC(C)(C)C)C(=O)NC(CCC(=O)OCc1ccccc1)C(N)=O` (stereo not drawn) (Boc-Leu-Glu(OBn)-NH2; configuration not given here), the GI50 (OVCAR-4 ovarian) is reported as 34.8 µg/mL (≈ 77.4 µM), the GI50 (UO-31 renal) is reported as 85.5 µg/mL and the GI50 (K-562 leukemia) is reported as 54.1 µg/mL. It also gave a GI50 (SK-MEL-28 melanoma) of 20.8 µg/mL, a TGI (SK-MEL-28 melanoma) of 51.4 µg/mL and a GI50 (COLO 205 colon) of 87.1 µg/mL. For the same molecule, the GI50 (SNB-75 CNS) was 32.7 µg/mL, the GI50 (M14 melanoma) was 32.7 µg/mL and the GI50 (UACC-257 melanoma) was 20.1 µg/mL (≈ 44.7 µM). For the same molecule, the TGI (UACC-257 melanoma) was 85.9 µg/mL (≈ 191 µM), the GI50 (A498 renal) was 45.5 µg/mL and the GI50 (NCI-H522 lung) was 29.4 µg/mL. The GI50 (UACC-62 melanoma) was 47.9 µg/mL (≈ 107 µM), the GI50 (RPMI-8226 leukemia) was 43.9 µg/mL and the GI50 (MALME-3M melanoma) was 32.2 µg/mL.
